The text below walks through data of patent publication EP2208725A1, “Novel specific inhibitors of ubiquitin specific protease 7, the pharmaceutical compositions thereof and their therapeutic applications” (Hybrigenics S.A., priority 2009, dated 2010).

In the assay the target is T1, Caspase 3 (Homo sapiens, UniProt P42574).
T1 sequence (P42574 29-175 limits assumed): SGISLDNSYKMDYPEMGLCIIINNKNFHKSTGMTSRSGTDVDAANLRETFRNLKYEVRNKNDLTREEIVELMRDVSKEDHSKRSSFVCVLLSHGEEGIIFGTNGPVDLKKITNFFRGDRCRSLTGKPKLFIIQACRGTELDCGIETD
T1 sequence (P42574 176-277 limits assumed): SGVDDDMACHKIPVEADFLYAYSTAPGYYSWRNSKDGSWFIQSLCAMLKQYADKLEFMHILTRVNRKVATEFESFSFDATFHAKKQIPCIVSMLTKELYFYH
The experiment in a line: Caspase 3 activity assay (Ac-DEVD-AMC). Type of assay: biochemical. To be noted: 250 nM Ac-DEVD-AMC, 1.6 nM enzyme; compounds tested from 200 µM to 91 nM; unit inferred; read-out: Inhibition of cysteine protease activities: Casp3. The procedure:
Caspase 3 was diluted in Caspase 3 buffer (100 mM Hepes pH 7.5; 10% sucrose; 0.1% CHAPS). Compounds stocks (100 mM) were stored at -20°C in DMSO. Compounds were tested at different concentrations: from 200 µM to 91 nM. Reactions were performed as duplicates in Black LJL 96 well plates (HE microplates; Molecular Devices; 20 µl final reaction volume). The substrate concentration for caspase 3 specificity assay was 250 nM (Ac-DEVD-AMC; Promega). The concentration of the enzyme (Caspase 3) in specificity assays was 1.6 nM. The concentrations were determined in order to perform specificity assays under initial velocities at fixed substrate concentration. Compounds were pre-incubated with enzymes for 30 minutes at 25°C. Reactions were initiated by addition of substrate to the plates containing the enzymes (+/- compounds) diluted in assay buffer. Reactions were incubated for 60 minutes at 37°C. Reactions were stopped by adding acetic acid (100 mM final). Readings were performed on a Pherastar Fluorescent Reader (BMG). λ Emission 380 nm; λ Excitation = 460 nm. Data (mean values +/- standard deviation) were analyzed as % of control (no compound) and plotted as percentage versus the Log of the compound concentration using GraphPad (Prism). Data were fitted to a sigmoidal model (variable slope).

Regarding `CC(=O)C1=C(O)C(=O)N(CCc2ccc(Cl)cc2)C1c1ccc(Br)cc1` (stereo not shown) [Example 25, 4-acetyl-5-(4-bromo-phenyl)-1-[2-(4-chloro-phenyl)-ethyl]-3-hydroxy-1,5-dihydro-pyrrol-2-one], the IC50 is greater than 200 µM.
Take `CC(=O)C1=C(O)C(=O)N(CCc2ccc(Br)cc2)C1c1ccc(Br)cc1` (stereo not shown) [Example 26, 4-acetyl-5-(4-bromo-phenyl)-1-[2-(4-bromo-phenyl)-ethyl]-3-hydroxy-1,5-dihydro-pyrrol-2-one]: the IC50 is greater than 200 µM.
As to `CC(=O)C1=C(O)C(=O)N(CCc2ccc(Cl)c(Cl)c2)C1c1ccc(Br)cc1` (stereo not shown) [Example 28, 4-acetyl-5-(4-bromo-phenyl)-1-[2-(3,4-dichloro-phenyl)-ethyl]-3-hydroxy-1,5-dihydro-pyrrol-2-one], the IC50 is greater than 200 µM.
Then `COc1cccc(CCN2C(=O)C(O)=C(C(C)=O)C2c2ccc(Br)cc2)c1` (stereo not shown) [Example 30, 4-acetyl-5-(4-bromo-phenyl)-3-hydroxy-1-[2-(3-methoxyphenyl)-ethyl]-1,5-dihydro-pyrrol-2-one], with greater than 200 µM; and `COc1ccc(CCN2C(=O)C(O)=C(C(C)=O)C2c2ccc(Br)cc2)cc1` (stereo not shown) [Example 32, 4-acetyl-5-(4-bromo-phenyl)-3-hydroxy-1-[2-(4-methoxyphenyl)-ethyl]-1,5-dihydro-pyrrol-2-one], with greater than 200 µM; and `CC(=O)C1=C(O)C(=O)N(CCc2ccc(F)cc2)C1c1ccc(Br)cc1` (stereo not shown) [Example 33, 4-acetyl-5-(4-bromo-phenyl)-3-hydroxy-1-[2-(4-fluorophenyl)-ethyl]-1,5-dihydro-pyrrol-2-one], with greater than 200 µM.
Then `CCOc1ccc(CCN2C(=O)C(O)=C(C(C)=O)C2c2ccc(Br)cc2)cc1` (stereo not shown) [Example 34, 4-acetyl-5-(4-bromo-phenyl)-3-hydroxy-1-[2-(4-ethoxy-phenyl)-ethyl]-1,5-dihydro-pyrrol-2-one], with greater than 200 µM.
As to `CC(=O)C1=C(O)C(=O)N(CCc2ccccc2)C1c1ccc2c(c1)OCO2` (stereo not shown) [Example 37, 4-acetyl-5-benzo[1,3]dioxol-5-yl-3-hydroxy-1-phenethyl-1,5-dihydro-pyrrol-2-one], the IC50 was greater than 200 µM.
Then `CC(=O)C1=C(O)C(=O)N(CCc2ccccc2)C1c1ccc(Br)c(Br)c1` (stereo not shown) [Example 41, 4-acetyl-5-(3,4-dibromo-phenyl)-3-hydroxy-1-phenethyl-1,5-dihydro-pyrrol-2-one], with greater than 200 µM.
Then `CC(=O)C1=C(O)C(=O)N(CCc2ccccc2)C1c1cccnc1Cl` (stereo not shown) [Example 42, 4-acetyl-5-(2-chloro-pyridin-3-yl)-3-hydroxy-1-phenethyl-1,5-dihydro-pyrrol-2-one], with greater than 200 µM; and `CC(=O)C1=C(O)C(=O)N(CCc2ccc(Br)cc2)C1c1ccc(Cl)cc1` (stereo not shown) [Example 45, 4-Acetyl-5-(4-chlorophenyl)-1-[2-(4-bromophenyl)-ethyl]-3-hydroxy-1,5-dihydro-pyrrol-2-one], with greater than 200 µM; and `CC(=O)C1=C(O)C(=O)N(CCc2ccc(Cl)cc2)C1c1ccc(Cl)cc1` (stereo not shown) [Example 46, 4-Acetyl-5-(4-chlorophenyl)-1-[2-(4-chlorophenyl)-ethyl]-3-hydroxy-1,5-dihydro-pyrrol-2-one], with greater than 200 µM.
As to `CC(=O)C1=C(O)C(=O)N(CCc2ccc(Cl)cc2Cl)C1c1ccc(Br)cc1` (stereo not shown) [Example 47, 4-Acetyl-5-(4-bromophenyl)-1-[2-(2,4-dichlorophenyl)-ethyl]-3-hydroxy-1,5-dihydro-pyrrol-2-one], the IC50 was greater than 200 µM.
